In the test the target is hPAD4 enzyme (Homo sapiens, UniProt Q9UM07). The test can be described thus: RFMS Assay 1 (rapid-fire mass spectrum PAD4 inhibition assay, BAEE substrate). Type of test: biochemical. As to conditions: 5 nM hPAD4 enzyme, 250 μM BAEE, 30 mins compound and enzyme preincubation at 37° C., 90 min enzyme/substrate reaction. How it is done: Compounds were solubilized in 100% DMSO to achieve a 10 mM compound concentration. Compound stock solutions were stored at RT. A series of dilutions were prepared in DMSO and mixed 8 times with 20 μL mixing volume. Final top concentration of compound in the assay is 50 μM. Final assay conditions were as follows: • Reaction volume: 26 μl • Assay buffer: 25 mM hepes, pH 7.5, 5 mM NaCl, 1 mM DTT, 0.2 mg/ml BSA, 0.01% CHAPS, 50 μM Calcium, and 5 μM TPEN • Final concentrations: 5 nM hPAD4 enzyme, 250 μM BAEE, and 0.5% DMSO • Total incubation time: 30 mins compound and enzyme preincubation at 37° C., 90 min enzyme/substrate reaction, 30 min reaction with phenyl glyoxal at 37° C. • Stop solution: 40 μl 5% TCA in ACN
Sequence of hPAD4 enzyme (Q9UM07 whole entry): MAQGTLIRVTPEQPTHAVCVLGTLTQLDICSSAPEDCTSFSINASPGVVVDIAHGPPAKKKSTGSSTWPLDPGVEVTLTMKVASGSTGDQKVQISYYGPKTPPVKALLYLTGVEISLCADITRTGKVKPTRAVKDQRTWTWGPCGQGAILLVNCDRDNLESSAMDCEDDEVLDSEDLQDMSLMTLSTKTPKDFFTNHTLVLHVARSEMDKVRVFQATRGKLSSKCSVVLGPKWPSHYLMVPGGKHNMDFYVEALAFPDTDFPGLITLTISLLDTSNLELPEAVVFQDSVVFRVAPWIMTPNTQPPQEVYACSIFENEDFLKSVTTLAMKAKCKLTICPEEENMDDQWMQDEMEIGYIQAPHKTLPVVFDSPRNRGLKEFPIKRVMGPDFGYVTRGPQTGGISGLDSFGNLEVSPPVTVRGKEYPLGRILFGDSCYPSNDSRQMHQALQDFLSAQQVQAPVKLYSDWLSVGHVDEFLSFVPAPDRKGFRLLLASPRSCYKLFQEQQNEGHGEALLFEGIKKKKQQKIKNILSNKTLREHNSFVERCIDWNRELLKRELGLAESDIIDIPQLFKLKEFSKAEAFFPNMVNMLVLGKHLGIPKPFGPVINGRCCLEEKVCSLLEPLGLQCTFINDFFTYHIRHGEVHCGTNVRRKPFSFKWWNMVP
0.13 μL of compound solution was added to 13 μL of 10 nM PAD4 in assay buffer. After 30 min 13 μl of 500 μM of BAEE was added in 25 mM hepes, pH 7.5, 5 mM NaCl, 1 mM DTT, 0.2 mg/ml BSA, 0.01% CHAPS, 50 µM Calcium, […] was added and the reaction incubated for 90 min at 37° C. The enzymatic reaction was quenched by addition of 15 μl of 6.1N TCA, 100% Final Concentration is 20%, 35 μl of 8.5 mM phenyl glyoxal (final concentration 4 mM) is then added and the reaction is incubated for 30 min at 37° C.
After 30 minutes the plates are spun down to remove all precipitate. The enzyme reaction was quenched with an equal volume of methanol containing internal standard (modified citrulline). Samples were loaded onto the Rapid Fire RF300 system (Agilent) wherein they were first sipped for 1000 ms and then directly loaded to a C18 separations cartridge using a mixture of acetonitrile containing 0.01% formic acid for 3000 ms desalting. The flow rate of the mobile phase was 1.5 ml/min. Once the samples were eluted from the cartridge, a mobile phase of acetonitrile containing 0.01% formic acid was used to move the samples into the mass spectrometer for 4000 ms at a flow rate of 1.25 ml/min/Sciex AP15500 triple quadrupole mass spectrometer (Applied Biosystems) equipped with ESI was used to analyze the peptidyl citrulline and internal standard ions.
MRM transition of product and internal standard were monitored at m/z 424.5 to 350.4 and m/z 293 to 247 respectively. The dwell time for each transition was set at 200 ms, and the ESI voltage was used at 5500 with a source temperature of 400° C. Extracted ion peaks for each transition were integrated using the Rapid Fire Integrator software. Peak area of analyte was normalized with internal standard.).

The IC50 is the point on the concentration scale where inhibition reaches its midpoint. Lower therefore signals inhibition by little substance. The compound `C[C@H](Cn1cnc(F)c1)Oc1cccc2cc(-c3nc4cc5c(nc4n3C)CCN(C[C@H](N)CF)C5=O)n(CC3CC3)c12` [Example 67, 7-((S)-2-amino-3-fluoropropyl)-2-(1-(cyclopropylmethyl)-7-(((R)-1-(4-fluoro-1H-imidazol-1-yl)propan-2-yl)oxy)-1H-indol-2-yl)-3-methyl-3,5,6,7-tetrahydro-8H-imidazo[4,5-b][1,6]naphthyridin-8-one] showed an IC50 of at most 0.01 µM.

With `COc1cccc2cc(-c3nc4cc5c(nc4n3C)CCN(C[C@@H](C)N)C5=O)n(Cc3ncco3)c12` [Example 25, (R)-7-(2-aminopropyl)-2-(7-methoxy-1-(oxazol-2-ylmethyl)-1H-indol-2-yI)-3-methyl-3,5,6,7-tetrahydro-8H-imidazo[4,5-b][1,6]naphthyridin-8-one], the IC50 lay within 0.101 to 0.5 µM.

As to `COc1cccc2cc(-c3nc4cc5c(nc4n3C)CCN(C[C@H](N)CF)C5=O)n(CC3CC3(F)F)c12` (stereo partly drawn) [Example 4, 7-((S)-2-amino-3-fluoropropyl)-2-(1-((2,2-difluorocyclopropyl)methyl)-7-methoxy-1H-indol-2-yl)-3-methyl-3,5,6,7-tetrahydro-8H-imidazo[4,5-b][1,6]naphthyridin-8-one], the IC50 was 0.101 to 0.5 µM.

The compound `[2H]c1nc([2H])n(CCOc2cccc3cc(-c4nc5cc6c(nc5n4C)CCN(C[C@H](N)CF)C6=O)n(CC4CC4)c23)c1[2H]` [Example 90, (S)-2-(7-(2-(1H-imidazol-1-yl-d3)ethoxy)-1-(cyclopropylmethyl)-1H-indol-2-yl)-7-(2-amino-3-fluoropropyl)-3-methyl-3,5,6,7-tetrahydro-8H-imidazo[4,5-b][1,6]naphthyridin-8-one] registered an IC50 of at most 0.01 µM.

The compound `Cn1cc(CCOc2cccc3cc(-c4nc5cc6c(nc5n4C)CCN(C[C@H](N)CF)C6=O)n(CC4CC4)c23)cn1` [Example 51, (S)-7-(2-amino-3-fluoropropyl)-2-(1-(cyclopropylmethyl)-7-(2-(1-methyl-1H-pyrazol-4-yl)ethoxy)-1H-indol-2-yl)-3-methyl-3,5,6,7-tetrahydro-8H-imidazo[4,5-b][1,6]naphthyridin-8-one] registered an IC50 of at most 0.01 µM.

In turn, `COCCn1c(-c2nc3cc4c(nc3n2C)CCN(C[C@H](N)CF)C4=O)cc2cccc(OC(F)Cn3ccnc3)c21` (single isomer, unassigned) [Example 77a] gave an IC50 of 0.011 to 0.1 µM.

The compound `CC(=O)N1CCC(c2cccc3cc(-c4nc5cc6c(nc5n4C)CCN(C[C@H](N)CF)C6=O)n(CC4CC4)c23)CC1` [Example 29, (S)-2-(7-(1-acetylpiperidin-4-yl)-1-(cyclopropylmethyl)-1H-indol-2-yl)-7-(2-amino-3-fluoropropyl)-3-methyl-3,5,6,7-tetrahydro-8H-imidazo[4,5-b][1,6]naphthyridin-8-one] registered an IC50 of 0.101 to 0.5 µM.

`Cn1c(-c2cc3cccc(OCC(F)n4ccnc4)c3n2CC2CC2)nc2cc3c(nc21)CCN(C[C@H](N)CF)C3=O` (single isomer, unassigned) [Example 79b] returned an IC50 of 0.011 to 0.1 µM.

Take `Cn1c(-c2cc3cccc(OC(C)(F)Cn4ccnc4)c3n2CC2CC2)nc2cc3c(nc21)CCN(C[C@H](N)CF)C3=O` (single isomer, unassigned) [Example 76a]: the IC50 lay within 0.011 to 0.1 µM.

In turn, `C[C@@H](Cn1cnc(F)c1)Oc1cccc2cc(-c3nc4cc5c(nc4n3C)CCN(C[C@H](N)CF)C5=O)n(CC3CC3)c12` [Example 66, 7-((S)-2-amino-3-fluoropropyl)-2-(1-(cyclopropylmethyl)-7-(((S)-1-(4-fluoro-1H-imidazol-1-yl)propan-2-yl)oxy)-1H-indol-2-yl)-3-methyl-3,5,6,7-tetrahydro-8H-imidazo[4,5-b][1,6]naphthyridin-8-one] returned an IC50 of at most 0.01 µM.

Regarding `Cn1c(-c2cc3cccc(OC(C)(F)Cn4ccnc4)c3n2CC2CC2)nc2cc3c(nc21)CCN(C[C@H](N)CF)C3=O` (single isomer, unassigned) [Example 76b], the IC50 is 0.011 to 0.1 µM.

Turning to `C[C@H](COc1cccc2cc(-c3nc4cc5c(nc4n3C)CCN(C[C@H](N)CF)C5=O)n(CC3CC3)c12)n1cnc(C#N)c1` [Example 91, 1-((R)-1-((2-(7-((S)-2-amino-3-fluoropropyl)-3-methyl-8-oxo-5,6,7,8-tetrahydro-3H-imidazo[4,5-b][1,6]naphthyridin-2-yl)-1-(cyclopropylmethyl)-1H-indol-7-yl)oxy)propan-2-yl)-1H-imidazole-4-carbonitrile], the IC50 lay in the range of 0.101 to 0.5 µM.

Compound `Cn1c(-c2cc3cccc(OCCn4ccnc4Cl)c3n2CC2CC2)nc2cc3c(nc21)CCN(C[C@H](N)CF)C3=O` [Example 93, (S)-7-(2-amino-3-fluoropropyl)-2-(7-(2-(2-chloro-1H-imidazol-1-yl)ethoxy)-1-(cyclopropylmethyl)-1H-indol-2-yl)-3-methyl-3,5,6,7-tetrahydro-8H-imidazo[4,5-b][1,6]naphthyridin-8-one] came in with an IC50 of 0.011 to 0.1 µM.

`Cn1c(-c2cc3cccc(OCC(O)c4cnco4)c3n2CC2CC2)nc2cc3c(nc21)CCN(C[C@H](N)CF)C3=O` (single isomer, unassigned) [Example 61b] registered an IC50 of 0.101 to 0.5 µM.

In turn, `Cn1c(-c2cc3cccc(/C=C/Cn4cncc4F)c3n2CC2CC2)nc2cc3c(nc21)CCN(C[C@H](N)CF)C3=O` [Example 98, (S,E)-7-(2-amino-3-fluoropropyl)-2-(1-(cyclopropylmethyl)-7-(3-(5-fluoro-1H-imidazol-1-yl)prop-1-en-1-yl)-1H-indol-2-yl)-3-methyl-3,5,6,7-tetrahydro-8H-imidazo[4,5-b][1,6]naphthyridin-8-one] returned an IC50 of 0.101 to 0.5 µM.

As to `Cn1c(-c2cc3cccc(OCCc4ccccn4)c3n2CC2CC2)nc2cc3c(nc21)CCN(C[C@H](N)CF)C3=O` [Example 58, (S)-7-(2-amino-3-fluoropropyl)-2-(1-(cyclopropylmethyl)-7-(2-(pyridin-2-yl)ethoxy)-1H-indol-2-yl)-3-methyl-3,5,6,7-tetrahydro-8H-imidazo[4,5-b][1,6]naphthyridin-8-one], the IC50 was 0.101 to 0.5 µM.

Regarding `COc1nccc2cc(-c3nc4cc5c(nc4n3C)CCN(C[C@H](N)CF)C5=O)n(CC(F)(F)F)c12` [Example 21, (S)-7-(2-amino-3-fluoropropyl)-2-(7-methoxy-1-(2,2,2-trifluoroethyl)-1H-pyrrolo[2,3-c]pyridin-2-yl)-3-methyl-3,5,6,7-tetrahydro-8H-imidazo[4,5-b][1,6]naphthyridin-8-one], the IC50 is over 1 µM.

As for `Cn1c(-c2cc3cccc(/C=C/Cn4cnc(F)c4)c3n2CC2CC2)nc2cc3c(nc21)CCN(C[C@H](N)CF)C3=O` [Example 97, (S,E)-7-(2-amino-3-fluoropropyl)-2-(1-(cyclopropylmethyl)-7-(3-(4-fluoro-1H-imidazol-1-yl)prop-1-en-1-yl)-1H-indol-2-yl)-3-methyl-3,5,6,7-tetrahydro-8H-imidazo[4,5-b][1,6]naphthyridin-8-one], the IC50 was 0.011 to 0.1 µM.

The compound `Cn1c(-c2cc3cccc(OCCc4cccnc4)c3n2CC2CC2)nc2cc3c(nc21)CCN(C[C@H](N)CF)C3=O` [Example 56, (S)-7-(2-amino-3-fluoropropyl)-2-(1-(cyclopropylmethyl)-7-(2-(pyridin-3-yl)ethoxy)-1H-indol-2-yl)-3-methyl-3,5,6,7-tetrahydro-8H-imidazo[4,5-b][1,6]naphthyridin-8-one] registered an IC50 of at most 0.01 µM.

As to `C[C@H](COc1cccc2cc(-c3nc4cc5c(nc4n3C)CCN(C[C@H](N)CF)C5=O)n(CC3CC3)c12)n1cncc1C#N` [Example 94, 1-((R)-1-((2-(7-((S)-2-amino-3-fluoropropyl)-3-methyl-8-oxo-5,6,7,8-tetrahydro-3H-imidazo[4,5-b][1,6]naphthyridin-2-yl)-1-(cyclopropylmethyl)-1H-indol-7-yl)oxy)propan-2-yl)-1H-imidazole-5-carbonitrile], the IC50 was 0.101 to 0.5 µM.

With `CO[C@H](C)C(=O)N1CCC(c2cccc3cc(-c4nc5cc6c(nc5n4C)CCN(C[C@H](N)CF)C6=O)n(CC4CC4)c23)CC1` [Example 31, 7-((S)-2-amino-3-fluoropropyl)-2-(1-(cyclopropylmethyl)-7-(1-((R)-2-methoxypropanoyl)piperidin-4-yl)-1H-indol-2-yl)-3-methyl-3,5,6,7-tetrahydro-8H-imidazo[4,5-b][1,6]naphthyridin-8-one], the IC50 is 0.011 to 0.1 µM.

(Values after patent US20250353848A1, “HETEROCYCLIC PAD4 INHIBITORS” (Celgene Corporation, priority 2022, published 2025).)
